Measured values from patent US20110159017A1, “TRYTOPHAN CATABOLISM IN CANCER TREATMENT AND DIAGNOSIS” (Ludwig Institute for Cancer Research Ltd., priority 2008, published 2011).

How the values were obtained:
IDO [1] = molecular target: T1, IDO (Homo sapiens, UniProt P14902); settings: J F Reinhard et al., 1996, read-out: IC50 (affinity to IDO); cited from earlier work
Target sequence in this assay (P14902 whole entry, species assumed): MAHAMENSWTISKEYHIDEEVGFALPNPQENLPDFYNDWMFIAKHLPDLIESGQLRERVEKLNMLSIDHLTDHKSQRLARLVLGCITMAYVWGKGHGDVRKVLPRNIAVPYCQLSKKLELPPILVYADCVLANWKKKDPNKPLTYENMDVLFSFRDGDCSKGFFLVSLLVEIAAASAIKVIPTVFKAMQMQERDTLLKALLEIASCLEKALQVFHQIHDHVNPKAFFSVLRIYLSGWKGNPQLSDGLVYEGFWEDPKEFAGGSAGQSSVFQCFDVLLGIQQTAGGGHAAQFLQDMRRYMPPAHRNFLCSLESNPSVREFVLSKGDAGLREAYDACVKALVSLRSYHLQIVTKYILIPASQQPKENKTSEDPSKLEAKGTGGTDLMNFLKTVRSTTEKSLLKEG

[2] = molecular target: T2, TDO2 in Head and Neck carcinoma cell line 2720 (SENY) (Homo sapiens, UniProt P48775); experiment: Tryptophan consumption and kynurenine production by Head and Neck carcinoma cell line 2720 (SENY), HPLC of supernatant; format: cell-based; settings: at 20 μM; SENY cells, overnight, HBSS with 50 μM tryptophan
T2 construct: To confirm the expression of enzymatically active TDO2, we used Head and Neck carcinoma cell line 2720 (SENY); endogenous in cells; host or cells: Head and Neck carcinoma cell line 2720 (SENY)
Protocol: FIG. 5. A bar graph depicting tryptophan consumption and kynurenine production in head and neck carcinoma cell line 2720 (SENY) in the presence or absence of the TDO-specific inhibitor 680C91 or the IDO inhibitor mb.
To confirm the expression of enzymatically active TDO2, we used Head and Neck carcinoma cell line 2720 (SENY), which expresses 12.7 molecules of TDO2 mRNA/cell. We measured tryptophan consumption and kynurenine production in the supernatant of 5×10^5 cells incubated overnight in 2 ml of HBSS containing 50 μM tryptophan. Tryptophan and kynurenine concentrations were measured by HPLC using standard methods.
See FIG. 5 for results of this assay. To confirm that the tryptophan-degrading activity was due to TDO, TDO-specific inhibitor 680C91 was included at 5 μM or 20 μM. As control, an IDO inhibitor (mb) was also used at 5 μM or 20 μM. A tryptophan-degrading activity was detected and was clearly observed by looking at the production of kynurenine: 11 μM as compared to 0 in the control without cells. This activity was mostly attributable to TDO, as it was blocked by the TDO-specific inhibitor 680C91 (50% inhibition at 20 μM).

human TDO2 = molecular target: T3, human TDO2 (Homo sapiens, UniProt P48775); experiment: Tryptophan degradation and kynurenin production by 293-E cells transfected with human TDO2, HPLC of supernatant; format: cell-based; settings: 293-E hTDO cells, overnight, HBSS with 25 μM tryptophan, increasing inhibitor concentrations (FIG. 4)
T3 construct: expressed in transfected cells; host or cells: human 293-EBNA (293-E) cells

IDO [3] = molecular target: T1, IDO; experiment: Tryptophan degradation and kynurenin production by 293-E cells transfected with human IDO, HPLC of supernatant; format: cell-based; parameters: expressed in transfected cells; host or cells: human 293-EBNA (293-E) cells; settings: 293-E hIDO cells, overnight, HBSS with 25 μM tryptophan, increasing inhibitor concentrations (FIG. 4)
Protocol: FIG. 4. Line graphs depicting concentrations of tryptophan and kynurenine in culture supernatants of different transfected cells. Control human 293-EBNA cells (293-E) (FIG. 4A), 293-E cells transfected with human IDO (293-E hIDO) (FIG. 4B) or human 293-E cells transfected with human TDO2 (293-E hTDO) (FIG. 4C) were incubated overnight (4×10^5 cells/2000) in Hank's balanced Salt solution (HBSS) supplemented with 25 μM tryptophan and increasing concentrations of the 680C91 inhibitor compound ([inh]). The concentrations (μM) of tryptophan ([Trp], ⋄) and kynurenin ([Kyn], □) were measured by HPLC in the supernatant.
A TDO inhibitor, 680C91, was described in Salter, M., R. Hazelwood, C. I. Pogson, R. Iyer, and D. J. Madge. 1995. Biochem. Pharmacol. 49:1435-1442. We synthesized this compound and tested its capacity to block tryptophan degradation by human 293 cells transfected with TDO2.
Target sequence in this assay (P14902 whole entry): as the sequence (P14902 whole entry, species assumed) above

T3 sequence (P48775 whole entry): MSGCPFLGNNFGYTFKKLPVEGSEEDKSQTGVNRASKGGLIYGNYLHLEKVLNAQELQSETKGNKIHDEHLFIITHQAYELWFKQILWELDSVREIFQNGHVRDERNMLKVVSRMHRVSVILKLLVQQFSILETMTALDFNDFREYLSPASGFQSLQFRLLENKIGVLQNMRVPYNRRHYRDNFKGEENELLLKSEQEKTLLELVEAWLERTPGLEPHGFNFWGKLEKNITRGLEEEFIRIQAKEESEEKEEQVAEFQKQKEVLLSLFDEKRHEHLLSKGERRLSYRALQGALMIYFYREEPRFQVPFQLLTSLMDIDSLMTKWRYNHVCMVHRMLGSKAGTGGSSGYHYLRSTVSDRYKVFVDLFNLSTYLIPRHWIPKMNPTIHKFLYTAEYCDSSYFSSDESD
T2 sequence (P48775 whole entry): as above

SMILES | IC50 (IDO [1]) [µM] | inhibition of tryptophan-degrading activity (kynurenine production) [2] [%] | block of tryptophan degradation and kynurenin production by TDO-expressing cells (human TDO2) | block of tryptophan degradation and kynurenin production by IDO-expressing cells (IDO [3])
C(=C\c1c[nH]c2ccccc12)/c1ccncc1 [540C91, (E)-3-[2-(4′-pyridyl)-vinyl]-1H-indole] | 1150 |  |  | 
Fc1ccc2c(/C=C/c3cccnc3)c[nH]c2c1 [680C91, (E)-6-fluoro-3-[2-(3-pyridyl)vinyl]-1H-indole] |  | 50 | efficiently blocked | failed to block
